For data set [1], the system named is MCF7 cells (ABCG2+). In words: SP analysis (DCV, flow cytometry) in MCF7 cells. It is filed as cell-based, human. Particulars: MCF7, 10 μM. From the text:
(§1) In recent studies, we described the side population (SP) phenotype as a marker that defines a heterogeneous cellular compartment with stem cell-characteristics in various cancer cell lines derived from solid tumors, such as ovarian cancer, breast cancer, and lung cancer.[26],[27]
(In flow cytometry, cells or beads pass a laser one at a time.)

For data set [2], the system named is STAT5. Description: Jess Simple Western immunoassay of STAT5/pSTAT5 in IGROV-1 SP cells. It is filed as cell-based, human. The settings on record: IGROV-1 SP, 10 μM, 72 h. The method, then: The impact of STAT5 activation on the mode of action was investigated in selected solid tumor cell lines as well.
Protein extracts were prepared as previously described.[44] Protein expression was determined using the capillary-based Jess Simple Western detection system (ProteinSimple, BioTechne) according to the manufacturer’s instructions at default settings. […] Horseradish peroxidase (HRP)-conjugated secondary antirabbit antibody, which was included in the Jess Detection Module kit, was used. Data analysis was conducted using Compass for Simple Western 4.0 software (ProteinSimple, BioTechne).

Data set [3] concerns K562-R cells. In words: Metabolic activity of K562-R cells, compounds alone (modified MTT assay). The format is cell-based, human. The settings on record: 10 μM, 72 h, without imatinib; vehicle control = 100%. How it is done:
The potential reduction in cell viability was determined using the modified MTT assay.
First, the compounds (10 μM) were applied alone to evaluate their effects per se.
COS-7 (2 × 10^3 cells per well), IGROV-1 SP (2.5 × 10^3 cells per well), A2780 V SP (1.5 × 10^3 cells per well), PC3-DR (4 × 10^3 cells per well), and DU145-DR (3 × 10^3 cells per well) cells were seeded in 96-well plates in triplicates and after 24 h, the compounds were added at the respective concentrations. K562-R and K562 cells (2 × 10^4 cells per well), were treated with the compounds 2 h after seeding. […] A modified MTT colorimetric assay (EZ4U kit, Biomedica) was used to determine the metabolic activity of the tested cells, according to the manufacturer’s instructions. Absorbance was measured and the optical density of the respective FCS-containing medium and of the substrate was subtracted to exclude nonspecific staining. Metabolic activity in the absence of the compounds (CTR, DMSO) was set to 100% as reference.
In general terms: Formazan colour is commonly taken as a measure of viable cells.

Data set [4] relates to A549 cells (ABCC1+). In words: SP analysis (DCV, flow cytometry) in A549 cells. It is filed as cell-based, human. Particulars: A549, 10 μM.
Source text: as §1

Data set [5] relates to K562-R cells. In words: Cellular imatinib accumulation assay (U(H)PLC-SIM-MS). The format is cell-based, human. The settings on record: preincubated 1 h with 10 μM compound, then 1 μM imatinib 2 h. How it is done:
After treatment, cells were washed, and the resulting cell pellets were lysed in 200 μL of ice-cold methanol. Lysates were incubated on a tube shaker (Thermomixer C, Eppendorf) for 20 min at 4 °C and 1400 rpm, followed by centrifugation (MicroStar 17R, VWR) at 16000g for 5 min at 4 °C. 180 μL of supernatants were separated from the sediment and dried in a rotary vacuum evaporator (Concentrator plus, Eppendorf) and stored at −80 °C until analysis.
Metabolites were separated using the following gradient: 1% B for 0.2 min, 1% B to 70% B within 0.6 min, 70% B to 90% B within 0.2 min, 90% B for 0.3 min. The UPLC system was coupled to a quadrupole orbitrap mass spectrometer (Exploris 480, Thermo Fischer Scientific) via a HESI electrospray source. […] The spray voltage was set to 3500 V and the ion transfer tube and vaporizer temperatures were set at 350 °C. Sheath gas was used at a flow rate of 60 (arbitrary units (a.u)) and auxiliary gas at a flow rate of 15 (a.u)).
Raw data processing was performed using TraceFinder General Quan 5.0 (Thermo Scientific, San Jose, CA, USA). The ICIS algorithm was used for peak identification and integration with the following parameters Peak detection strategy: Highest peak; Peak threshold type: Area; Threshold: 1; Smoothing: 3; S/N threshold: 3; Tailing Factor: 8. Peaks were manually adjusted when necessary. […]

A short description of data set [6]: Caco2 permeability (bidirectional). The format is in vitro ADME. The settings on record: human, Caco-2; Papp B–A/Papp A–B. How it is done:
The medium was changed regularly and on day 20 the permeability study was performed. The monolayers were prepared by rinsing the apical and basolateral surfaces with Hanks Balanced Salt Solution (HBSS) twice at the desired pH and by incubating for 40 min to stabilize the physiological parameters. […] The compounds were diluted with buffer to a concentration of 10 μM (final DMSO concentration ≤1%) and added to the apical or basolateral sides of the cell monolayer. Compound permeability was assessed in duplicates and molecules of known permeability characteristics were used as controls (antipyrine, atenolol, talinolol, and estrone 3-sulfate). To calculate Papp, compound appearance was measured using LC–MS/MS. The efflux ratio was determined for bidirectional assays.
In general terms: Caco-2 cells form a polarised layer with tight junctions and transporters.

SMILES strings stand for the structures.

What is called efflux ratio is a quotient of directional permeabilities that is used to spot active efflux. Take `CCCc1nc2c(C)cc(-c3nc4ccccc4n3C)cc2n1Cc1ccc(-c2ccccc2C(=O)OC)cc1` [7b, Methyl 4′-((1,7′-dimethyl-2′-propyl-1H,3′H-[2,5′-bibenzo[d]imidazole]-3′-yl)methyl)-[1,1′-biphenyl]-2-carboxylate]: the “effect on SP phenotype” value in data set [1] and in data set [4] was “eliminated the SP phenotype” throughout. The “phosphorylation status of STAT5” value in data set [2] is on record as “practically did not suppress pSTAT5”. In addition, in data set [3], the “metabolic activity of K562-R cells, compound alone” value was “inactive”. In addition, the “intracellular accumulation of imatinib” value in data set [5] is “notably restored”. Also, the efflux ratio at 10 µM in data set [6] was determined as 1.24.
For `CCCc1nc2c(C)cc(-c3nc4ccccc4n3C)cc2n1Cc1ccc(-c2ccccc2C(N)=O)cc1` [7c, 4′-((1,7′-Dimethyl-2′-propyl-1H,3′H-[2,5′-bibenzo[d]imidazole]-3′-yl)methyl)-[1,1′-biphenyl]-2-carboxamide], the “effect on SP phenotype” value in data set [1] and in data set [4] was “eliminated the SP phenotype” each time. Further, the “metabolic activity of K562-R cells, compound alone” value in data set [3] is “inactive”. Besides, the “intracellular accumulation of imatinib” value in data set [5] is listed as “notably restored”.
